Values of other authors, collected in patent publication US10344017B2, “Pyrrolcarboxamide derivatives for the inhibition of ERK5” (CANCER RESEARCH TECHNOLOGY LIMITED, priority 2014, dated 2019).

How the values were obtained:
[1] = system: tumour cell lines and endothelial cells; details: cited from earlier work
[2] = system: bFGF-induced angiogenesis; details: matrigel plug; cited from earlier work
[3] = cited from earlier work
human and murine tumour = details: cited from earlier work

For `CCOc1cc(N2CCC(O)CC2)ccc1Nc1ncc2c(n1)N(C)c1ccccc1C(=O)N2C` [XMD8-92], the anti-proliferative activity [1] is given as “modest anti-proliferative activity”, the blood vessel formation [2] is given as “completely abrogated blood vessel formation” and the tolerability in mice [3] is given as “well tolerated”. For the same compound, the tumour growth (human and murine tumour; human and murine tumours in mice) was “pronounced retardation of both human and murine tumour growth” and the “inhibition of tumour ERK5” value (human and murine tumour; mice) was “inhibited tumour ERK5”.
